Test results: ChEMBL document CHEMBL5625234, “Magic shotgun approach to anti-inflammatory pharmacotherapy: Synthesis of novel thienopyrimidine monomers/heterodimer as dual COX-2 and 15-LOX inhibitors endowed with potent antioxidant activity” (Eur J Med Chem, 2023)

Columns and labels:
RAW264.7 [1] = assay: cells; conditions: Mus musculus
[2] = Inhibition of soybean 15-LOX using arachidonic acid/linolenic acid as substrate preincubated for 5 mins followed by substrate addition and measured after 10 mins by absorbance based assay; design: species or system Glycine max
[3] = biological target: T1, Prostaglandin G/H synthase 1 (Ovis aries, UniProt P05979); assay: Inhibition of ovine COX-1 using arachidonic acid as substrate preincubated for 10 mins followed by substrate addition and measured after 2 mins by ELISA
T1 sequence (P05979 whole entry): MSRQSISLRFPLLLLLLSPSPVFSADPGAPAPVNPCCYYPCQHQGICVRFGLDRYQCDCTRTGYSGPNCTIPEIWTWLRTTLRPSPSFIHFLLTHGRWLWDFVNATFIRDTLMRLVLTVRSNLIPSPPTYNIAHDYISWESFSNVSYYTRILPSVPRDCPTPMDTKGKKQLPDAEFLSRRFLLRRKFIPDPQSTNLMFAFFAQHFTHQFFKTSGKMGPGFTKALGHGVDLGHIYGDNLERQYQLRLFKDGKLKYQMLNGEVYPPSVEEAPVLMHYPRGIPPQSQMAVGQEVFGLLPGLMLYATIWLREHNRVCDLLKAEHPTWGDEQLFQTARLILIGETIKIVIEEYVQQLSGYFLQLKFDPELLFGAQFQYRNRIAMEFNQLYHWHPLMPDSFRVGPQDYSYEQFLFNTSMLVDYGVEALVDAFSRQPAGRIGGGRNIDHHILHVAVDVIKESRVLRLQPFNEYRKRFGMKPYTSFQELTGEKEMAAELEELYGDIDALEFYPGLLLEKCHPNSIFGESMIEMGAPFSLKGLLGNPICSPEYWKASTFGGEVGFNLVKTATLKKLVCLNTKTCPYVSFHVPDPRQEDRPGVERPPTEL

RAW264.7 [4] = assay: cells; conditions: Mus musculus; remark: listed apart in the source
[5] = biological target: T2, Polyunsaturated fatty acid lipoxygenase ALOX15 (Homo sapiens, UniProt P16050); assay: Inhibition of 15-LOX (unknown origin) using linoleic acid as substrate incubated for 5 mins by absorbance based assay
T2 sequence (P16050 whole entry): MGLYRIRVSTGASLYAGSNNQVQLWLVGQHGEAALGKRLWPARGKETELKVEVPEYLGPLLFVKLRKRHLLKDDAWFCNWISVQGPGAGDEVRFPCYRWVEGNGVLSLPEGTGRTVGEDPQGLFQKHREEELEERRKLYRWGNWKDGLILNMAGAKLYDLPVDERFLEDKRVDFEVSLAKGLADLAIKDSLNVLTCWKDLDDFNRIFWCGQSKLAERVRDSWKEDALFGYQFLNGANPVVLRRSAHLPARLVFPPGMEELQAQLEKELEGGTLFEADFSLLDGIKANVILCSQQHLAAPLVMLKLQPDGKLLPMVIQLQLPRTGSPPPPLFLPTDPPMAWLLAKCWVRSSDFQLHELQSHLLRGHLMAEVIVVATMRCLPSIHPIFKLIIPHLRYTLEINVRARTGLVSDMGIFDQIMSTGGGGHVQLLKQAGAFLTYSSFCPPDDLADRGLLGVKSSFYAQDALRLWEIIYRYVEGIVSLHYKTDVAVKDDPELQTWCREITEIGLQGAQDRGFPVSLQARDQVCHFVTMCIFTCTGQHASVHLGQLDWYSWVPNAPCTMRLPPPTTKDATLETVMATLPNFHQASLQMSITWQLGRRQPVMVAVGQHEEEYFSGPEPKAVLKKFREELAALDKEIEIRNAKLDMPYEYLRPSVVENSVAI

[6] = Inhibition of soybean 15-LOX using arachidonic acid as substrate preincubated with compound followed by substrate addition and measured after 5 mins by absorbance based microplate reader; design: species or system Glycine max
RAW264.7 [7] = assay: cells; conditions: Mus musculus; remark: listed apart in the source
[8] = biological target: T3, Prostaglandin G/H synthase 2 (Homo sapiens, UniProt P35354); assay: Inhibition of human COX-2 using arachidonic acid as substrate incubated for 30 secs by ELISA
T3 sequence (P35354 whole entry): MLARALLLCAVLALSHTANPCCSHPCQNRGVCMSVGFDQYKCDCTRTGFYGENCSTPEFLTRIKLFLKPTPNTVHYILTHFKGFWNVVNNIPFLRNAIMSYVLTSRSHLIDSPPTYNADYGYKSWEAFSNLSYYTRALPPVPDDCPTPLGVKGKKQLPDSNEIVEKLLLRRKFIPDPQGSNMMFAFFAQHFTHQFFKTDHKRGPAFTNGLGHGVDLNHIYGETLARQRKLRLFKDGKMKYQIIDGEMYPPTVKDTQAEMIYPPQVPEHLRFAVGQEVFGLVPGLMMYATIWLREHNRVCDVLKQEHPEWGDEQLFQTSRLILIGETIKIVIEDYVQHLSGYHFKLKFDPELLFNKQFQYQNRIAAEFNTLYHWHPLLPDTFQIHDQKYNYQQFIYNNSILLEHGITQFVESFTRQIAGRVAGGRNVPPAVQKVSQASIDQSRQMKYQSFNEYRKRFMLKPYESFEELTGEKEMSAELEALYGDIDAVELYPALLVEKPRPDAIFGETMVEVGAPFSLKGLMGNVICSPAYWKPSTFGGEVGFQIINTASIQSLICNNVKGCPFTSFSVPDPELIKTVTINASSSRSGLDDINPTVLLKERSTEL

RAW264.7 [9] = assay: cells; conditions: Mus musculus; remark: listed apart in the source
[10] = biological target: T4, Prostaglandin G/H synthase 2 (Ovis aries, UniProt P79208); assay: Inhibition of ovine COX-2 using arachidonic acid as substrate preincubated for 5 mins followed by substrate addition and measured after 2 mins by colorimetric assay
T4 sequence (P79208 whole entry): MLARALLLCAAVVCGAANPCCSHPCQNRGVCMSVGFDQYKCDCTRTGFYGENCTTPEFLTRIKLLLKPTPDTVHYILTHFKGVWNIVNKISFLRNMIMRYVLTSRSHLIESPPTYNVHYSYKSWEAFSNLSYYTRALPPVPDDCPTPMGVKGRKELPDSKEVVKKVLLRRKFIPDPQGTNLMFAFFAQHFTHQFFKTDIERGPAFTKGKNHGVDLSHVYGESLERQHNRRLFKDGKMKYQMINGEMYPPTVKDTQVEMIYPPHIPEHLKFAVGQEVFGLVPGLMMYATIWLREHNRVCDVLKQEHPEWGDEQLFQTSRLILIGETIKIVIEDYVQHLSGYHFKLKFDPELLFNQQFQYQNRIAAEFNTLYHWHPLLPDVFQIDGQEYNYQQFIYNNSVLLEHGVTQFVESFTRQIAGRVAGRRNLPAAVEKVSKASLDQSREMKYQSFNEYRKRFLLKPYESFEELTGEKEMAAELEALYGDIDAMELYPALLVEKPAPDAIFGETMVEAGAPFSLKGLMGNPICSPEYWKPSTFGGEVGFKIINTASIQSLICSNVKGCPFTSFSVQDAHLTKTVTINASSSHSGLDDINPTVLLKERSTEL

Ovis aries = organism: Ovis aries; assay: Selectivity index, ratio of IC50 for inhibition of ovine COX-1 to IC50 for inhibition of ovine COX-2
[11] = biological target: T3, Prostaglandin G/H synthase 2; assay: Inhibition of human COX-2
[12] = biological target: COX-1/COX-2 (Homo sapiens) (UniProt P35354+P23219); assay: Selectivity index, ratio of IC50 for inhibition of human COX-1 to IC50 for inhibition of human COX-2; assay type: protein assay
Sequence of COX-1/COX-2 (Homo sapiens) (P23219 whole entry, looked up, one chain of several): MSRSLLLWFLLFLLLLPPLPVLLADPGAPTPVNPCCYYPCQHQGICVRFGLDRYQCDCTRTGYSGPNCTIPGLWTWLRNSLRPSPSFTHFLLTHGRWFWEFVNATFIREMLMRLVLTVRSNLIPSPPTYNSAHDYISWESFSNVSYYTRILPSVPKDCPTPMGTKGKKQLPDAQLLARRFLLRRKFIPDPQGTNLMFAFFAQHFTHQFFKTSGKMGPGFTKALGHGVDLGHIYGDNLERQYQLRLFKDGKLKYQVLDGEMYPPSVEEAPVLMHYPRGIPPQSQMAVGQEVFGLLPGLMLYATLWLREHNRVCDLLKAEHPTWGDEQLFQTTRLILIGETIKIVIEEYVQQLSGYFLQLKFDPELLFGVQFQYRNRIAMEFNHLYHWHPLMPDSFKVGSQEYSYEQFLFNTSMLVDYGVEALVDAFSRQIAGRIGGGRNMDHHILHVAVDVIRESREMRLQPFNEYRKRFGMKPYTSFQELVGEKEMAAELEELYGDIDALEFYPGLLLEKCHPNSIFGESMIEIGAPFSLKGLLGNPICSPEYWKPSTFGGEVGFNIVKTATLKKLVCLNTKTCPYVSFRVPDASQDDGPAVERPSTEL

Compound	IC50 (RAW264.7 [1])	IC50 [2]	IC50 [3]	other results
COc1ccc(-c2nc(Nc3ccc(F)cc3)c3c4c(sc3n2)CCCC4)cc1	> 100 µM	1.97 µM	11.4 µM	IC50 (RAW264.7 [4]): > 100 µM
COc1ccc(-c2nc(Nc3ccc(Br)cc3)c3c4c(sc3n2)CCCC4)cc1	> 100 µM	2.4 µM	9.53 µM	–
CCn1c(-n2cc(/C=N/N=c3\scc(-c4ccc(Br)cc4)n3-c3ccccc3)c(-c3ccc(Cl)cc3)n2)nc2[nH]c(=O)n(C)c(=O)c21	–	–	–	IC50 [5]: 1.76 µM
COc1ccc(-c2nc(NNc3ncnc4sc5c(c34)CCCC5)c3c4c(sc3n2)CCCC4)cc1	> 100 µM	1.86 µM	11.3 µM	–
O=C(C/C(=C/c1cccc([N+](=O)[O-])c1)c1n[nH]c(=S)o1)c1ccc(Cl)c(Cl)c1	–	–	10.4 µM	IC50 [6]: 1.63 µM
COc1cc(-c2nc(Nc3ccc(F)cc3)c3c4c(sc3n2)CCCC4)cc(OC)c1OC	> 100 µM	2.29 µM	10.9 µM	IC50 (RAW264.7 [7]): 168 µM
COc1cc(/C=C2\S/C(=N/c3nnc(C)s3)NC2=O)cc(OC)c1OC	–	10.9 µM	12.3 µM	–
CS(=O)(=O)c1ccc(C2CN(c3ccc(C(F)(F)F)cc3)N=N2)cc1 (centres undefined)	–	–	–	IC50 [8]: 0.226 µM
CCn1c(-n2cc(/C=N/N=c3\scc(-c4ccc(Br)cc4)n3-c3ccccc3)c(-c3ccc(OC)cc3)n2)nc2[nH]c(=O)n(C)c(=O)c21	–	–	–	IC50 [5]: 1.82 µM
Clc1ccc(-c2nn(-c3ccccc3)cc2/C=N/Nc2ncnc3c(-c4ccccc4)csc23)cc1	–	–	–	IC50 [10]: 0.048 µM; Ratio IC50 (Ovis aries): 248
CSc1nnc2n(Cc3ccccc3)c(=O)c3c4c(sc3n12)CCCC4	–	–	–	IC50 [11]: 0.52 µM; Ratio IC50 [12]: 192
O=c1[nH]/c(=C\c2nnc(-c3ccc(O)cc3)s2)s/c1=C\c1ccc(Cl)c(Cl)c1	–	11.9 µM	15.4 µM	–
O=[N+]([O-])c1ccc(-c2nc(Nc3ccc(Br)cc3)c3c4c(sc3n2)CCCC4)cc1	> 100 µM	3.41 µM	9.87 µM	IC50 (RAW264.7 [7]): > 100 µM

Further lines, with some results ahead:

IC50 (RAW264.7 [1])	IC50 [2]	IC50 [3]	Compound	other results
> 100 µM	3.99 µM	6.49 µM	O=[N+]([O-])c1ccc(-c2nc(Nc3cccc(Br)c3)c3c4c(sc3n2)CCCC4)cc1	–
> 100 µM	3.63 µM	7.18 µM	O=[N+]([O-])c1ccc(-c2nc(Nc3ccc(F)cc3)c3c4c(sc3n2)CCCC4)cc1	–
> 100 µM	2.11 µM	9.12 µM	Clc1ccc(-c2nc(Nc3ccc(Br)cc3)c3c4c(sc3n2)CCCC4)cc1	–
> 100 µM	4.49 µM	8.2 µM	Cc1ccc(Nc2nc(-c3ccc(Cl)cc3)nc3sc4c(c23)CCCC4)cc1	IC50 (RAW264.7 [9]): > 100 µM
> 100 µM	3.36 µM	8.55 µM	Clc1ccc(-c2nc(Nc3cccc(Br)c3)c3c4c(sc3n2)CCCC4)cc1	IC50 (RAW264.7 [9]): > 100 µM
> 100 µM	2.66 µM	8.5 µM	COc1cc(-c2nc(Nc3ccc(C)cc3)c3c4c(sc3n2)CCCC4)cc(OC)c1OC	IC50 (RAW264.7 [4]): > 100 µM; IC50 (RAW264.7 [9]): > 100 µM
> 100 µM	2.76 µM	8.2 µM	Cc1ccc(Nc2nc(-c3ccc([N+](=O)[O-])cc3)nc3sc4c(c23)CCCC4)cc1	–
–	4.81 µM	5.82 µM	Fc1ccc(Nc2nc(-c3ccc(Cl)cc3)nc3sc4c(c23)CCCC4)cc1	IC50 (RAW264.7 [4]): > 100 µM
